{"source": "patent US20240192198A1", "about": "“BIOMIMETIC LIPOSOMES AND METHODS OF MAKING AND USING THE SAME” (Worcester Polytechnic Institute, priority 2022, published 2024)", "origin": "cited, not measured here", "conditions": "hydrophobicity; obtained from the National Library of Medicine, PubChem Database"}
{"smiles": "Nc1nc2ncc(CNc3ccc(C(=O)N[C@@H](CCC(=O)O)C(=O)O)cc3)nc2c(=O)[nH]1", "note": "[Folic acid]", "values": [{"measurement": "logP", "value": "−2.5"}]}
